Structures are written as SMILES. Some results are limits rather than exact numbers.

Sequence of Glycogen synthase kinase-3 beta (P49841 whole entry): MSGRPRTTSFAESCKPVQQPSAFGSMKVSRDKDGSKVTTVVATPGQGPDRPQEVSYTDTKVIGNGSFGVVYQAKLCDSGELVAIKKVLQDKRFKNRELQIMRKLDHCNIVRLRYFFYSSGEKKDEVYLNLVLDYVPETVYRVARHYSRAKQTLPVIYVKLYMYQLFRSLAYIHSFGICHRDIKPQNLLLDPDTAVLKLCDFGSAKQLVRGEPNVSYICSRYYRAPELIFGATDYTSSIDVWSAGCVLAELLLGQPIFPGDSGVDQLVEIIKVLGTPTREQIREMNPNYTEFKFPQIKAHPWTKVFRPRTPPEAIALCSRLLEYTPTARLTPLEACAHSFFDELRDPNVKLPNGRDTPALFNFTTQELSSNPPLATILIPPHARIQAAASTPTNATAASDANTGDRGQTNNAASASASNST

The assay addresses Glycogen synthase kinase-3 beta (Homo sapiens, UniProt P49841). Description: concentration-response blocking of human GSK3B – biochemical, luminescence, cell-free homogeneous, retest, dose response (AID 434954).
Regarding `O=C(O)CCN1C(=O)/C(=C\c2ccc(-c3nc4ccccc4s3)o2)SC1=S` [3-[(5E)-5-[[5-(1,3-benzothiazol-2-yl)-2-furanyl]methylidene]-4-oxo-2-sulfanylidene-3-thiazolidinyl]propanoic acid], the EC50 is > 300 µM.

`Cc1ccc2c(c1)Oc1ccc([N+](=O)[O-])cc1C(=O)N2` [7-methyl-2-nitrodibenzo[b,f][1,4]oxazepin-11(10H)-one]: the EC50 was > 300 µM.

As to `C=CCC1(CC=C)CCCN1C(=O)C1CCC(=O)N(CCc2ccc(OC)cc2)C1` (stereo unspecified) [MLS001072450], the EC50 was > 300 µM.

As for `CC1CN(C(=O)CCCN2C(=O)c3ccccc3C2=O)CC(C)O1` (stereo unspecified) [2-[4-(2,6-dimethylmorpholin-4-yl)-4-oxobutyl]isoindole-1,3-dione], the EC50 was > 300 µM.

Take `CC(C)CNC(=O)c1cccc(NC(=O)c2ccc(NC(=O)c3ccco3)cc2)c1` [MLS000088940]: the EC50 is > 300 µM.

In the case of `Nc1nc(NCCCN2CCOCC2)nc(Nc2cccc(Cl)c2)c1[N+](=O)[O-]` [MLS000769815], a half-maximal effect (EC50) was put at 4.25 µM. In other words, the single-digit micromolar range.

As for `Cc1nc2sc(C(c3cccc(F)c3)N3CC(C)OC(C)C3)c(O)n2n1` (stereo unspecified), the EC50 was > 300 µM.

Consider `CC(=O)Oc1ccc2occ(C(=O)c3ccccc3)c2c1` [acetic acid (3-benzoyl-5-benzofuranyl) ester], for which the half-maximal effective concentration (EC50) was > 300 µM.

As to `CCOC(=O)c1cnc2ccc(OC)cc2c1NCCN1CCOCC1` [SMR000518517], the half-maximal effective concentration (EC50) is > 300 µM.

`CCOC(=O)c1nnn(-c2nonc2N)c1COc1ccccc1` [ethyl 1-(4-amino-1,2,5-oxadiazol-3-yl)-5-(phenoxymethyl)triazole-4-carboxylate]: the concentration giving a half-maximal response (EC50) was 23.8 µM.

`O=C1CN=C(c2cccs2)c2c(sc3c2CCCC3)N1` [5-Thiophen-2-yl-1,2,3,4,7,9-hexahydro-10-thia-6,9-diaza-benzo[a]azulen-8-one] displayed an EC50 of 3.09 µM.

With `CCSc1nnc(NC(=O)CSc2nnc(CNC(=O)c3cc(OC)c(OC)c(OC)c3)o2)s1` [N-[[5-[2-[(5-ethylsulfanyl-1,3,4-thiadiazol-2-yl)amino]-2-oxoethyl]sulfanyl-1,3,4-oxadiazol-2-yl]methyl]-3,4,5-trimethoxybenzamide], the EC50 is > 300 µM.

As for `N#CCCn1cc(C(=O)O)c(-c2cccc([N+](=O)[O-])c2)n1` [SMR000372597], the 50% effective concentration (EC50) was > 300 µM.

Regarding `Nc1nc(N)nc(-c2cc(Cl)ccc2Cl)n1` [SMR000471621], the EC50 is > 300 µM.

Regarding `CCCCn1nc(NC(=O)CCC)c2cc3cc(OC)ccc3nc21` [MLS001214871], the half-maximal effective concentration (EC50) is > 300 µM.

In the case of `CC(=O)COc1cc(C)cc2oc(=O)cc(-c3ccccc3)c12`, the EC50 is > 300 µM.

For `CC(C)Nc1nc(N=C(N)S)nc(NC(C)C)n1`, the EC50 is > 300 µM.

For the compound `CCOc1ccc(N2C(=O)S/C(=C\c3cccn3C)C2=O)cc1` [MLS000580380], the concentration giving a half-maximal response (EC50) is > 300 µM.

With `Cc1cc(C)cc(NC(=O)NCC2CCN(Cc3cc(C)ccc3C)CC2)c1` [1-(3,5-dimethylphenyl)-3-[[1-[(2,5-dimethylphenyl)methyl]-4-piperidinyl]methyl]urea], the EC50 was > 300 µM.

Turning to `O=C(O)c1ccccc1NCc1ccncc1` [SMR000031483], the concentration giving a half-maximal response (EC50) is > 300 µM.

With `O=S(=O)(c1ccc(Br)cc1)N1CCN(c2cc(-c3ccccc3)nc3ncnn23)CC1` [7-[4-(4-bromophenyl)sulfonyl-1-piperazinyl]-5-phenyl-[1,2,4]triazolo[1,5-a]pyrimidine], the EC50 was > 300 µM.

For the compound `O=C1N=C(Nc2ccccc2Cl)SC1=Cc1ccc(C(=O)O)cc1` [MLS001203362], the EC50 is > 300 µM.

In the case of `Cc1c(Cl)cccc1Nc1ccccc1C(=O)O`, the EC50 was > 300 µM.

For the compound `Nc1nonc1-n1nnc(C(=O)NN=Cc2cccc(Cl)c2)c1CN1CCCCCC1` [MLS000950585], the EC50 came to 4 µM.

Take `CSc1nc(NCCCN(C)C)c2c3c(sc2n1)CN(C)CC3` [SMR000543143]: the EC50 was > 300 µM.

For `COc1ccc(Cl)cc1-c1nc(N)nc(NC2CCCCC2)n1` [MLS000698409], the EC50 was > 300 µM.

Broadly, the EC50 is the concentration at which the effect is half-maximal. Low values mean a more potent agent, high ones a less potent agent.

The record behind these values is BindingDB's records for doi:10.7270/Q2TX3CTT (Broad Institute, 2010).
